In US12685735B2 (Foghorn Therapeutics Inc., priority 2020, dated 2026):

Legend:
BRG-1 = BRG-1 (Homo sapiens, UniProt P51532); assay: ATPase catalytic activity assay of BRG-1 (ADP-Glo); assay type: biochemical; conditions: ATPase catalytic activity, ADP-Glo; for IC50: read-out: BRG1 IC50 (μM)*; for Emax: read-out: BRG1 Max % Inhibition
Outline: (§1)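 In vitro biochemical ATPase assay; product ADP detected after removing leftover ATP and reconverting ADP to ATP for a luciferase signal.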

BRM = BRM (Homo sapiens, UniProt P51531); assay: ATPase catalytic activity assay of BRM (ADP-Glo); assay type: biochemical; conditions: for IC50: read-out: BRM IC50 (μM)*
Chain of BRM (P51531 whole entry): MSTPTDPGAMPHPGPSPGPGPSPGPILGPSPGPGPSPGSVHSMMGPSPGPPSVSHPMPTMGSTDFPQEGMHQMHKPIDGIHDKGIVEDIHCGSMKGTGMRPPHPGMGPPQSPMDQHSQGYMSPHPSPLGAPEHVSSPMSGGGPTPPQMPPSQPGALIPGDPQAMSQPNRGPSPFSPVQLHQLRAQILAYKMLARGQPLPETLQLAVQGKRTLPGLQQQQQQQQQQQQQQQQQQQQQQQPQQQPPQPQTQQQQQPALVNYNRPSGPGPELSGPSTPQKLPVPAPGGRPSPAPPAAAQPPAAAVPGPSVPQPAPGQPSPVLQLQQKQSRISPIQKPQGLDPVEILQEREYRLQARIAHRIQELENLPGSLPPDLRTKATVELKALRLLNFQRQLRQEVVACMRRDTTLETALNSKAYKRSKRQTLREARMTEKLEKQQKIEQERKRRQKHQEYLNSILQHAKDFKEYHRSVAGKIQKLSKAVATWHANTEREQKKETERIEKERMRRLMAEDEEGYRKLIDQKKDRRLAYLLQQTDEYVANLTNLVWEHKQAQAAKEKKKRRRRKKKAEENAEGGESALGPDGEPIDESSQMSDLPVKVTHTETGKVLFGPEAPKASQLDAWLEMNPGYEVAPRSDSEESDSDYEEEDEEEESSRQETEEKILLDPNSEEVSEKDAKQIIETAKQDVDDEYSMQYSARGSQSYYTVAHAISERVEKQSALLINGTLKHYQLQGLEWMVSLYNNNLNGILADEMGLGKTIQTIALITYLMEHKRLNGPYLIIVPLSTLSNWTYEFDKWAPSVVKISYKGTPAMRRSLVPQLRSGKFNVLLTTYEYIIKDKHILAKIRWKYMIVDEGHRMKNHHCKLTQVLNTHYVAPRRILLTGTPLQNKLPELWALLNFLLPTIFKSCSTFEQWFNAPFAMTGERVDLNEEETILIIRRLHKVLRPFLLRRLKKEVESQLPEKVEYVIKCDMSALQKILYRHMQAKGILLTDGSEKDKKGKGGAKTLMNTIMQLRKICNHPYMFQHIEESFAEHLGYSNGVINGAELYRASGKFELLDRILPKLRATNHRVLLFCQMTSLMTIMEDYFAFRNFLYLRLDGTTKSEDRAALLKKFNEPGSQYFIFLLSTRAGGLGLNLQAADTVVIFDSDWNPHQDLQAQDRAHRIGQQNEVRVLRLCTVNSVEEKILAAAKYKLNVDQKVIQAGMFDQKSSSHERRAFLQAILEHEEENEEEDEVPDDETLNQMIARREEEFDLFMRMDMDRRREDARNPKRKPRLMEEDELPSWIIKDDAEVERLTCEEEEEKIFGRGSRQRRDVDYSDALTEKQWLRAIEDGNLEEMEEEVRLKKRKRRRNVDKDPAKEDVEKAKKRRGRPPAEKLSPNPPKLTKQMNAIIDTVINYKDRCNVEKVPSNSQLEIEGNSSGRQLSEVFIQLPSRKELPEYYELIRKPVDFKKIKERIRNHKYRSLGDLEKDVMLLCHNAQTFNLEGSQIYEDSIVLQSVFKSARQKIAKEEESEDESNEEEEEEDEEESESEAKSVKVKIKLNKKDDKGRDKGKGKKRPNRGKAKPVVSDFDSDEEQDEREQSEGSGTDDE
Outline: as §1

Chain of BRG-1 (P51532 whole entry): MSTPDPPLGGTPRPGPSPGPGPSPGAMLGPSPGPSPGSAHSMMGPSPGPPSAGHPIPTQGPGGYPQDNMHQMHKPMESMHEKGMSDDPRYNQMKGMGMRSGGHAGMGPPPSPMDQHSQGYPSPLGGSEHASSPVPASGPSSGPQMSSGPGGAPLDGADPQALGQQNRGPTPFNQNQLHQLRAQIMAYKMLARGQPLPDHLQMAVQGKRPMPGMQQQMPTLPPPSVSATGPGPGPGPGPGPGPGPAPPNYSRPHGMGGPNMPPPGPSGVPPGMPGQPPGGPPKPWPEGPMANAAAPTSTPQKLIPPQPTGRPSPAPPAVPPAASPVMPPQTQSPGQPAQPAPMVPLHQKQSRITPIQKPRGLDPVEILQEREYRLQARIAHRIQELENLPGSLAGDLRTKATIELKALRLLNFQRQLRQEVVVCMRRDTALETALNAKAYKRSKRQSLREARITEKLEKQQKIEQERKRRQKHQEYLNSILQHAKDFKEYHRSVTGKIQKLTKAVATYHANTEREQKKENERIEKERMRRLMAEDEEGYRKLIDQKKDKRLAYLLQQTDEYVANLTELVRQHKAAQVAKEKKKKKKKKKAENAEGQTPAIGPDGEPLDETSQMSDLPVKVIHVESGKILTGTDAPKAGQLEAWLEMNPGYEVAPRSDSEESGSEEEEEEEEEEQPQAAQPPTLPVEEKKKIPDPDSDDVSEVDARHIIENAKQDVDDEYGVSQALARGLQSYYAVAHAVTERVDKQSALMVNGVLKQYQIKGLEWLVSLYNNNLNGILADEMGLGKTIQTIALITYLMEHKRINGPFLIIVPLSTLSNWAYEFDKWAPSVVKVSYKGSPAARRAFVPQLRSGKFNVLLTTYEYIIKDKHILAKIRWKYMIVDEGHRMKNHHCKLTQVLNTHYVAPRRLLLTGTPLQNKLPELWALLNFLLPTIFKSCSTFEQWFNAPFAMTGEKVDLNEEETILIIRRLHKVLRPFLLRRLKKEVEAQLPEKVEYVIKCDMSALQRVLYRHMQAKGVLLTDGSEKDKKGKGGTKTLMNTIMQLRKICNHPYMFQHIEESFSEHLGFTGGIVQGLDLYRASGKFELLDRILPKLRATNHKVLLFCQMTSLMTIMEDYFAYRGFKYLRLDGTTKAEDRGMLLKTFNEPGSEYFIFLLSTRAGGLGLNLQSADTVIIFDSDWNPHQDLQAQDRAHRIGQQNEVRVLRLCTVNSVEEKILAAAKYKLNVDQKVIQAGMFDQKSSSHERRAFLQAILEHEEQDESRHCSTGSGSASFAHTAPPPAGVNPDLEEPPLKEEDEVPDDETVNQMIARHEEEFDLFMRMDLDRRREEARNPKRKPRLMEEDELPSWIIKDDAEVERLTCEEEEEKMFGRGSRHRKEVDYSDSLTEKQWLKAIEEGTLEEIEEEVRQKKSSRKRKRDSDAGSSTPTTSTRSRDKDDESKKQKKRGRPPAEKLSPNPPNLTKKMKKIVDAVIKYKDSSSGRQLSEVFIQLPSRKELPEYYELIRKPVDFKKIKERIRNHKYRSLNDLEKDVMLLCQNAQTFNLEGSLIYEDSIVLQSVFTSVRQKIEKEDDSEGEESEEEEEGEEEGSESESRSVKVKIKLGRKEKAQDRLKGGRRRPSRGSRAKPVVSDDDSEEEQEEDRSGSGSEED

| Structure (SMILES) | IC50 (BRG-1) [µM] | Emax (BRG-1) [%] | BRM Max % Inhibition (BRM) [%] | IC50 (BRM) [µM] |
| --- | --- | --- | --- | --- |
| C[C@@]1(F)COCc2ccc(C(=O)NCC(=O)Nc3nc(-c4ccnc(C5(O)CC5)c4)cs3)cc21 [Compound 330, (S)-4-fluoro-N-(2-((4-(2-(1-hydroxycyclopropyl)pyridin-4-yl)thiazol-2-yl)amino)-2-oxoethyl)-4-methylisochromane-6-carboxamide] | 0.1 to 1 | > 95 | >95 | < 0.1 |
| C[C@@]1(F)COCc2ccc(C(=O)NCC(=O)Nc3nc(-c4cccc(C(F)F)n4)cs3)cc21 [Compound 331, (S)-N-(2-((4-(6-(difluoromethyl)pyridin-2-yl)thiazol-2-yl)amino)-2-oxoethyl)-4-fluoro-4-methylisochromane-6-carboxamide] | 0.1 to 1 | > 95 | >95 | < 0.1 |
| COc1cc(F)cc(-c2csc(NC(=O)CNC(=O)c3ccc4c(c3)[C@](C)(F)COC4)n2)c1 [Compound 337, (S)-4-fluoro-N-(2-((4-(3-fluoro-5-methoxyphenyl)thiazol-2-yl)amino)-2-oxoethyl)-4-methylisochromane-6-carboxamide] | < 0.1 | > 95 | >95 | < 0.1 |
| C[C@@]1(C#N)COCc2ccc(C(=O)NCC(=O)Nc3nc(-c4cc(F)c5c(c4)OCO5)cs3)cc21 [Compound 339, (R)-4-cyano-N-(2-((4-(7-fluorobenzo[d][1,3]dioxol-5-yl)thiazol-2-yl)amino)-2-oxoethyl)-4-methylisochromane-6-carboxamide] | < 0.1 | > 95 | >95 | < 0.1 |
| CC1CC(c2cccc(-c3csc(NC(=O)CNC(=O)c4ccc5c(c4)[C@](C)(C#N)COC5)n3)c2)O1 (stereo partly drawn) [Compound 340, (R)-4-cyano-4-methyl-N-(2-((4-(3-(4-methyloxetan-2-yl)phenyl)thiazol-2-yl)amino)-2-oxoethyl)isochromane-6-carboxamide] | 0.1 to 1 | > 95 | >95 | < 0.1 |
| C[C@@]1(C#N)COCc2ccc(C(=O)NCC(=O)Nc3nc(-c4cccc(N5CC(F)(F)C5)c4)cs3)cc21 [Compound 342, (R)-4-cyano-N-(2-((4-(3-(3,3-difluoroazetidin-1-yl)phenyl)thiazol-2-yl)amino)-2-oxoethyl)-4-methylisochromane-6-carboxamide] | 0.1 to 1 | > 95 | >95 | < 0.1 |
| O=C(CNC(=O)c1cccc(C2(C(F)F)COC2)c1)Nc1nc(-c2cccc(C(F)F)c2)cs1 [Compound 344, 3-(3-(difluoromethyl)oxetan-3-yl)-N-(2-((4-(3-(difluoromethyl)phenyl)thiazol-2-yl)amino)-2-oxoethyl)benzamide] | 0.1 to 1 | > 95 | >95 | 0.1 to 1 |
| C[C@@H]1CN(c2cccc(-c3csc(NC(=O)CNC(=O)c4cccc(C5(C(F)F)CCOC5)c4)n3)c2)C[C@H](C)O1 (stereo partly drawn) [Compound 345, 3-(3-(difluoromethyl)tetrahydrofuran-3-yl)-N-(2-((4-(3-((cis)-2,6-dimethylmorpholino)phenyl)thiazol-2-yl)amino)-2-oxoethyl)benzamide] | 1 to 5 | > 95 | >95 | < 0.1 |
| CC1COCc2ccc(C(=O)NCC(=O)Nc3nc(-c4cccc(N5C[C@@H](C)O[C@@H](C)C5)n4)cs3)cc21 (stereo partly drawn) [Compound 346, N-(2-((4-(6-((cis)-2,6-dimethylmorpholino)pyridin-2-yl)thiazol-2-yl)amino)-2-oxoethyl)-4-methylisochromane-6-carboxamide] | 0.1 to 1 | > 95 | >95 | < 0.1 |
| C[C@@]1(C#N)COCc2ccc(C(=O)NCC(=O)Nc3nc(-c4cccc(N5CC6(CCO6)C5)c4)cs3)cc21 [Compound 348, (R)-N-(2-((4-(3-(1-oxa-6-azaspiro[3.3]heptan-6-yl)phenyl)thiazol-2-yl)amino)-2-oxoethyl)-4-cyano-4-methylisochromane-6-carboxamide] | 0.1 to 1 | > 95 | >95 | < 0.1 |
| C[C@@H]1CN(c2cccc(-c3csc(NC(=O)CNC(=O)c4ccc5c(c4)[C@@]4(CCO4)COC5)n3)n2)C[C@H](C)O1 [Compound 350, (S)-N-(2-((4-(6-((cis)-2,6-dimethylmorpholino)pyridin-2-yl)thiazol-2-yl)amino)-2-oxoethyl)spiro[isochromane-4,2′-oxetane]-6-carboxamide] | 1 to 5 | > 95 | >95 | < 0.1 |

Results, then the compound that gave them:

| IC50 (BRG-1) [µM] | Emax (BRG-1) [%] | BRM Max % Inhibition (BRM) [%] | IC50 (BRM) [µM] | Structure (SMILES) |
| --- | --- | --- | --- | --- |
| < 0.1 | > 95 | >95 | < 0.1 | C[C@@]1(F)COCc2ccc(C(=O)NCC(=O)Nc3nc(-c4cccc(N5CCC5)c4)cs3)cc21 [Compound 332, (S)-N-(2-((4-(3-(azetidin-1-yl)phenyl)thiazol-2-yl)amino)-2-oxoethyl)-4-fluoro-4-methylisochromane-6-carboxamide] |
| 1 to 5 | > 75 | >75 | 0.1 to 1 | C[C@@]1(C#N)COCc2ccc(C(=O)NC3(C(=O)Nc4nc(-c5cccc(C(F)F)c5)cs4)CC3)cc21 [Compound 333, (R)-4-cyano-N-(1-((4-(3-(difluoromethyl)phenyl)thiazol-2-yl)carbamoyl)cyclopropyl)-4-methylisochromane-6-carboxamide] |
| > 5 | > 90 | >90 | 0.1 to 1 | COc1cccc(-c2csc(NC(=O)CNC(=O)c3cc(OC)c4c(c3)[C@](C)(C#N)COC4)n2)c1 [Compound 335, (R)-4-cyano-8-methoxy-N-(2-((4-(3-methoxyphenyl)thiazol-2-yl)amino)-2-oxoethyl)-4-methylisochromane-6-carboxamide] |
| 1 to 5 | > 85 | >85 | 0.1 to 1 | COc1cccc(-c2csc(NC(=O)C3(NC(=O)c4ccc5c(c4)[C@](C)(C#N)COC5)CC3(F)F)n2)c1 (stereo partly drawn) [Compound 336, (R)-4-cyano-N-(2,2-difluoro-1-((4-(3-methoxyphenyl)thiazol-2-yl)carbamoyl)cyclopropyl)-4-methylisochromane-6-carboxamide] |
| 0.1 to 1 | > 90 | >90 | 0.1 to 1 | C[C@@H]1CN(c2cccc(-c3csc(NC(=O)CNC(=O)c4ccc5c(c4)CCCCO5)n3)n2)C[C@H](C)O1 [Compound 338, N-(2-((4-(6-((cis)-2,6-dimethylmorpholino)pyridin-2-yl)thiazol-2-yl)amino)-2-oxoethyl)-2,3,4,5-tetrahydrobenzo[b]oxepine-7-carboxamide] |
| 0.1 to 1 | > 95 | >95 | < 0.1 | C[C@@]1(F)COCc2ccc(C(=O)NCC(=O)Nc3nc(-c4cccc(C(F)F)c4)cs3)cc21 [Compound 341, (S)-N-(2-((4-(3-(difluoromethyl)phenyl)thiazol-2-yl)amino)-2-oxoethyl)-4-fluoro-4-methylisochromane-6-carboxamide] |
| < 0.1 | > 95 | >95 | < 0.1 | C[C@@H]1CN(c2cc(-c3csc(NC(=O)CNC(=O)c4ccc5c(c4)[C@](C)(C#N)COC5)n3)ccn2)C[C@H](C)O1 [Compound 347, (R)-4-cyano-N-(2-((4-(2-((cis)-2,6-dimethylmorpholino)pyridin-4-yl)thiazol-2-yl)amino)-2-oxoethyl)-4-methylisochromane-6-carboxamide] |
| 0.1 to 1 | > 95 | >95 | < 0.1 | C[C@@H]1CN(c2cccc(-c3csc(NC(=O)CNC(=O)c4ccc5c(c4)[C@]4(CCO4)COC5)n3)n2)C[C@H](C)O1 [Compound 349, (R)-N-(2-((4-(6-((cis)-2,6-dimethylmorpholino)pyridin-2-yl)thiazol-2-yl)amino)-2-oxoethyl)spiro[isochromane-4,2′-oxetane]-6-carboxamide] |
| < 0.1 | > 95 | >95 | < 0.1 | CC1CCN1c1cccc(-c2csc(NC(=O)CNC(=O)c3ccc4c(c3)[C@](C)(C#N)COC4)n2)c1 (stereo partly drawn) [Compound 351, (4R)-4-cyano-4-methyl-N-(2-((4-(3-(2-methylazetidin-1-yl)phenyl)thiazol-2-yl)amino)-2-oxoethyl)isochromane-6-carboxamide] |
| < 0.1 | > 95 | >95 | < 0.1 | C[C@@]1(C#N)COCc2ccc(C(=O)NCC(=O)Nc3nc(-c4cc(F)c5c(c4)CCO5)cs3)cc21 [Compound 352, (R)-4-cyano-N-(2-((4-(7-fluoro-2,3-dihydrobenzofuran-5-yl)thiazol-2-yl)amino)-2-oxoethyl)-4-methylisochromane-6-carboxamide] |
| < 0.1 | > 95 | >95 | < 0.1 | C[C@@]1(C#N)COCc2ccc(C(=O)NCC(=O)Nc3nc(-c4cc(F)c5c(c4)OCC5)cs3)cc21 [Compound 353, (R)-4-cyano-N-(2-((4-(4-fluoro-2,3-dihydrobenzofuran-6-yl)thiazol-2-yl)amino)-2-oxoethyl)-4-methylisochromane-6-carboxamide] |
| 0.1 to 1 | > 95 | >95 | < 0.1 | COC(=O)N1CCC[C@@H](c2csc(NC(=O)CNC(=O)c3ccc4c(c3)[C@](C)(C#N)COC4)n2)C1 [Compound 355, methyl (R)-3-(2-(2-((R)-4-cyano-4-methylisochromane-6-carboxamido)acetamido)thiazol-4-yl)piperidine-1-carboxylate] |
